Values quoted from earlier work, collected in patent US7645466B2, “Methods for deriving, isolating, and/or extracting amino acid compositions from Fenugreek seed” (TSI Group Limited, priority 2004, dated 2010).

System: pancreatic beta cell
Details: micromolar concentrations; direct effect on pancreatic beta cell, glucose dependent

**Q.** Which glucose-induced insulin secretion does the source give for `C[C@@H]([C@H](C)O)[C@H](N)C(=O)O` [4-hydroxyisoleucine] here?
**A.** stimulate glucose-induced insulin secretion in micromolar concentrations
